This experiment relates to spindle assembly checkpoint. In words: SAC-Formation - Nocodazole-Induced Assay. It is filed as cell-based. Conditions: Homo sapiens; HeLa cells, nocodazole 0.1 μg/ml, 24 h, phosphorylated histone H3 on serine 10. From the text:
The spindle assembly checkpoint assures the proper segregation of chromosomes during mitosis. Upon entry into mitosis, chromosomes begin to condensate which is accompanied by the phosphorylation of histone H3 on serine 10. Dephosphorylation of histone H3 on serine 10 begins in anaphase and ends at early telophase. Accordingly, phosphorylation of histone H3 on serine 10 can be utilized as a marker of cells in mitosis. Nocodazole is a microtubule destabilizing substance. Paclitaxel is a microtubule stabilizing compound. Thus, nocodazole as well as paclitaxel interfere with microtubule dynamics and mobilize the spindle assembly checkpoint. […] The mitotic breakthrough can be detected by the decrease of cells with phosphorylation of histone H3 on serine 10. This decline is used as a marker to determine the capability of compounds of the present invention to induce a mitotic breakthrough. The typical morphological alteration of nuclei with a prematurely completed mitosis after SAC-inhibition can be monitored via image analysis routines supporting those findings.
The nocodazole and paclitaxel variations were used to focus on compounds that are capable of inhibiting a SAC induced by both microtubule destabilization as well as microtubule stabilization. When SAC inducing agents and compounds are given simultaneously, inhibitors that effectively block the SAC during formation or abrogation are identified. When cells are incubated with a SAC inducing agent and the SAC interfering compound is given after a defined time, inhibitors are identified that effectively block SAC abrogation.
Cultivated cells of the human cervical tumor cell line HeLa (ATCC CCL-2) were plated at a density of 1000 cells/well in a 1536-well microtiter plate in 2 μl PAA Ham's F12 Medium supplemented with 1% (v/v) glutamine, 1% (v/v) penicillin, 1% (v/v) streptomycin and 10% (v/v) fetal calf serum. After incubation overnight at 37° C., 10 μl/well nocodazole at a final concentration of 0.1 μg/ml were added to cells. Test compounds solubilized in dimethyl sulfoxide (DMSO) were added at various concentrations (0 μM, as well as in the range of 0.005 μM-20 μM; the final concentration of the solvent DMSO was 0.5% (v/v)). Cells were incubated for 24 h at 37° C. in the presence of test compounds in combination with nocodazole. Thereafter, cells were fixed in 4% (v/v) paraformaldehyde in phosphate buffered saline (PBS) at 4° C. overnight then permeabilized in 0.1% (v/v) Triton X™ 100 in PBS at room temperature for 20 min and blocked in 0.5% (v/v) bovine serum albumin (BSA) in PBS at room temperature for 15 min. After washing with PBS, 5 μl/well antibody solution (anti-phospho-histone H3 clone 3H10, FITC; Millipore, Cat #16-222; 1:1000 dilution) was added to cells, which were incubated for 2 h at room temperature. Afterwards, cells were washed with PBS and 5 μl/well solution of HOECHST 33342 dye (5 μg/ml) was added to cells and cells were incubated 15 min at room temperature in the dark. Cells were washed twice with PBS then covered with PBS and stored at 4° C. until analysis. Images were acquired with a PERKIN ELMER OPERA™ High-Content Analysis reader. Images were analyzed with image analysis software MetaXpress™ from Molecular devices utilizing the Mitotic Index application module. In this assay both labels HOECHST 33342 and phosphorylated Histone H3 on serine 10 were measured. HOECHST 33342 labels the DNA and is used to count the cell number. The staining of phosphorylated Histone H3 on serine 10 determines the number of mitotic cells. […] Otherwise cells were arrested at G2/M phase of the cell cycle progression. The raw assay data were further analyzed by four-parametric hill equation using Genedata's Assay Analyzer and Condoseo software.

Broadly, the IC50 is the concentration needed to halve the response being measured. Turning to `COc1ccc(NC(=O)c2c(C)nsc2Nc2nc3c(C(F)(F)F)ccnc3s2)cn1` [Example 123], the IC50 was determined as 0.22 µM.

Consider `COc1ccc(NC(=O)c2c(C)nsc2Nc2nc3ncc(C(F)(F)F)cc3s2)cn1` [Example 124], for which the concentration for half-maximal inhibition (IC50) worked out at 18 µM.

For `COc1ccnc(Nc2snc(C)c2C(=O)Nc2ccc(F)c(F)c2)c1` [Example 125], the half-inhibitory concentration (IC50) was greater than 20 µM.

Turning to `COc1ccc(NC(=O)c2c(C)nsc2Nc2ncc(C(=O)O)s2)cn1` [Example 126], the IC50 was found to be 19 µM.

As for `CCc1ccccc1NC(=O)c1c(C)nsc1Nc1nc(C)cc(C)n1` [Example 127], the IC50 is greater than 20 µM.

For the compound `COc1ccc(NC(=O)c2c(C)nsc2Nc2ncc(C(=O)N3CCOCC3)s2)cn1` [Example 128], the 50% inhibitory concentration (IC50) was determined as 13 µM.

For `COc1ccc(NC(=O)c2c(C)nsc2Nc2nc3cnccc3s2)cn1` [Example 129], the IC50 is 14 µM.

As to `Cc1nsc(Nc2cc(C(=O)N(C)C)ccn2)c1C(=O)Nc1ccc(F)c(F)c1` [Example 130], the IC50 was greater than 20 µM.

As to `Cc1nsc(Nc2nc(C(=O)N(C)C)cs2)c1C(=O)Nc1ccc(F)c(F)c1` [Example 131], the IC50 amounted to 11 µM.

Take `CNc1cncc(Nc2snc(C)c2C(=O)Nc2ccc(F)c(F)c2)n1` [Example 132]: the IC50 amounted to 14 µM.

In the case of `Cc1nsc(Nc2cncc(C(=O)N3CCN(C)CC3)n2)c1C(=O)Nc1ccc(F)c(F)c1` [Example 133], the IC50 was found to be 15 µM.

Regarding `CCc1ccccc1NC(=O)c1c(C)nsc1Nc1cc(OC)ccn1` [Example 134], the IC50 is greater than 20 µM.

Consider `CCc1ccccc1NC(=O)c1c(C)nsc1Nc1ncc(OC)cn1` [Example 135], for which the half-inhibitory concentration (IC50) amounted to 16 µM.

As to `CCc1cnc(Nc2snc(C)c2C(=O)Nc2ccccc2CC)nc1` [Example 136], the IC50 was 6.8 µM.

Turning to `CCc1ccccc1NC(=O)c1c(C)nsc1Nc1ncccn1` [Example 137], the half-maximal inhibitory concentration (IC50) was greater than 20 µM.

Consider `CCc1ccccc1NC(=O)c1c(C)nsc1Nc1nccc2ccccc12` [Example 138], for which the IC50 stood at 17 µM.

On to `CCOC(=O)c1cc(C)nc(Nc2snc(C)c2C(=O)Nc2ccccc2CC)c1` [Example 139], for which the IC50 was greater than 20 µM.

For the compound `COC(=O)c1ccnc(Nc2snc(C)c2C(=O)Nc2ccc(OC)nc2)c1` [Example 140], the IC50 is greater than 20 µM.

With `CCc1ccccc1NC(=O)c1c(C)nsc1Nc1ncccc1C` [Example 141], the IC50 is 19 µM.

For the compound `CCc1ccccc1NC(=O)c1c(C)nsc1Nc1ccccn1` [Example 142], the 50% inhibitory concentration (IC50) worked out at 14 µM.

In the case of `CCOc1ccc(NC(=O)c2c(C)nsc2Nc2cc(C#N)ccn2)cn1` [Example 143], the concentration for half-maximal inhibition (IC50) was greater than 20 µM.

For `CCc1ccccc1NC(=O)c1c(C)nsc1Nc1ncccc1OC` [Example 144], the IC50 was greater than 20 µM.

On to `CCc1ccccc1NC(=O)c1c(C)nsc1Nc1ccc(C(=O)OC)cn1` [Example 145], for which the concentration for half-maximal inhibition (IC50) was determined as 7.2 µM.

As for `CCc1ccccc1NC(=O)c1c(C)nsc1Nc1cnc(C(=O)OC)cn1` [Example 146], the 50% inhibitory concentration (IC50) was 1.4 µM.

Take `COC(=O)c1cnc(Nc2snc(C)c2C(=O)Nc2ccc(OC)nc2)o1` [Example 147]: the IC50 was 13 µM.

In the case of `CCc1ccccc1NC(=O)c1c(C)nsc1Nc1cccc(OC)n1` [Example 148], the IC50 is greater than 20 µM.

Turning to `CCc1ccccc1NC(=O)c1c(C)nsc1Nc1cc(C(=O)OC)ccn1` [Example 149], the concentration for half-maximal inhibition (IC50) was found to be 4.1 µM.

On to `CCOC(=O)c1cnc(Nc2snc(C)c2C(=O)Nc2ccc(OC)nc2)o1` [Example 150], for which the IC50 was 16 µM.

`Cc1nsc(Nc2ccc(C(N)=O)cn2)c1C(=O)Nc1ccc(Cl)c(F)c1` [Example 151]: the half-maximal inhibitory concentration (IC50) worked out at 1.7 µM.

Take `COc1ccc(NC(=O)c2c(C)nsc2Nc2ncc(C(N)=O)s2)cn1` [Example 152]: the half-maximal inhibitory concentration (IC50) was greater than 20 µM.

As to `Cc1nsc(Nc2ccc(C(=O)N(C)C)nn2)c1C(=O)Nc1ccc(F)c(F)c1` [Example 153], the half-maximal inhibitory concentration (IC50) came to 1.5 µM.

As for `CCNC(=O)c1cnc(Nc2snc(C)c2C(=O)Nc2ccc(OC)nc2)s1` [Example 154], the 50% inhibitory concentration (IC50) stood at 4.3 µM.

Turning to `COc1ccc(NC(=O)c2c(C)nsc2Nc2ncc(C(=O)N(C)C)s2)cn1` [Example 155], the IC50 was determined as 5.8 µM.

For `COc1ccc(NC(=O)c2c(C)nsc2Nc2nc(-c3ccc(Cl)cc3)cs2)cn1` [Example 156], the concentration for half-maximal inhibition (IC50) was 0.55 µM.

In the case of `COc1ccc(Oc2ccc(NC(=O)c3c(C)nsc3Nc3ccc(C#N)cn3)cn2)cc1` [Example 157], the IC50 was determined as 2.8 µM.

Take `COc1ccc(NC(=O)c2c(C)nsc2Nc2ncc(C#N)s2)cn1` [Example 158]: the IC50 turned out to be 4.2 µM.

Turning to `CCc1ccccc1NC(=O)c1c(C)nsc1Nc1ncnc(C)c1C` [Example 159], the half-inhibitory concentration (IC50) came out at 15 µM.

On to `COc1ccc(NC(=O)c2c(C)nsc2Nc2nc(C(N)=O)cs2)cn1` [Example 160], for which the IC50 turned out to be 2.6 µM.

In the case of `CCc1ccccc1NC(=O)c1c(C)nsc1Nc1cnc(C(N)=O)cn1` [Example 161], the IC50 came out at 15 µM.

For the compound `COc1ccc(NC(=O)c2c(C)nsc2Nc2ccc(C#N)cn2)cc1F` [Example 162], the IC50 was greater than 20 µM.

With `Cc1nsc(Nc2cnccn2)c1C(=O)Nc1ccc(OC2CCCCC2)nc1` [Example 163], the IC50 came to 1.3 µM.

The values above are taken from US9682995B2, “Amino-substituted isothiazoles” (BAYER PHARMA AKTIENGESELLSCHAFT, priority 2013, dated 2017).
